These results are taken from patent publication US20260345582A1, “PRODRUG FOR ANTI-AGING RELATED DISEASES AND USE METHOD THEREOF” (Beijing SunCell Bio-Medical Co., Ltd., priority 2022, published 2026).

Series [1] can be described thus: plasma metabolic stability, canine. Format: in vitro ADME. The settings on record: dog, 120 min. How it is done:
(§1) Plasma Metabolic Stability
(§2) Termination of the reaction was accomplished by the addition of 3× volume of acetonitrile and centrifugation at 16000 g for 20 minutes. The supernatant was taken for a LC-MS/MS analysis. The chromatographic column: Waters XSelect HSS T3; the flow rate: 500 μL/min; the eluent: A, water (0.1% formic acid); B, acetonitrile (0.1% formic acid); the gradient elution: 0-1.5 min, 5% B, 1.5-9 min, 5%-80% B, 9-12 min, 80%-100% B, 12-14 min, 100% B, 14-14.3 min, 100%-5% B, 14.3-15 min, 5% B.

Series [2] is described as follows: plasma metabolic stability, mouse. The settings on record: 120 min. The class given is in vitro ADME. How it is done: as §1, §2
Series [3] can be described thus: liver microsomal metabolic stability, all species. Format: in vitro ADME, rat and mouse. The conditions noted are these: human, monkey, canine, rat, mouse; Table 4. How it is done: (§3) Hepatic Microsomal Metabolic Stability
The entire experiment was performed in triplicate. All data calculations were performed by Microsoft Excel software. Peak areas were detected by extracting the ionic spectrum.
The in vitro half-life (t1/2) was calculated by slope: in vitro t½=0.693/k

In series [4] the test system is mouse model of oxygen-induced retinopathy. The series is described as follows: oxygen-induced retinopathy, retinal microvessel staining analysis. Format: in vivo, C57BL6/J mice. The settings on record: single intravitreal injection. The procedure:
A. Modelling of a mouse model of oxygen-induced retinopathy, and the schematic diagram of treatment. C57BL6/J mice were cultured in 75% hyperoxia for 5 consecutive days starting from postnatal day 7, and treated by a single intravitreal administration of the drug on postnatal day 12, and then transferred to normal air atmosphere until day 17 for retinal sampling and analysis. P0, P7, P12, and P17 in the panel represent mice on postnatal days 0, 7, 12, and 17, respectively.
B. Representative diagram of the reduction of pathological avascular areas in the mouse retina after the treatment by intravitreal injection of A13bGa1. Mouse retinal microvessels were labelled by IB4 staining for the central avascular area analysis, wherein the green fluorescence represents the IB4-labelled microvascular areas, and the avascular areas are circled with white markers in the panel.
C. Statistical results of the retina pathological avascular areas after treatment of different groups of mice. […] The statistics in the panel are the quantitative results of the ischemic areas in the retinas of each sample compared with that of the VEH control group after the areas were taken as the means, and the error bar is a standard deviation. […]

Series [5] in a line: plasma metabolic stability, monkey. The class given is in vitro ADME. The conditions noted are these: 120 min. How it is done:
as §1, §2

Series [6] in a line: liver microsomal metabolic stability, human. The procedure: as §3
A13bGa1 was co-incubated with the mouse, rat, canine, monkey and human […] and the incubation medium at a final drug concentration of 1 μM in the incubation system for 60 minutes. Samples were taken and analyzed at time points 0, 15, 30, 45 and 60 minutes during the incubation. The reaction was terminated by adding an amount of acetonitrile solution containing the internal standard. […] The residual percentage, half-life, intrinsic clearance, amplified clearance, hepatic clearance and hepatic extraction ratio were determined. The entire experiment was performed in triplicate. All data calculations were performed by Microsoft Excel software. Peak areas were detected by extracting the ionic spectrum. The in vitro half-life (t1/2) of the parent compound was detected by fitting the natural logarithm of the percentage elimination of the parent compound linearly to time.
The in vitro intrinsic clearance (in μL/min/mg protein) was calculated using the following equation: in vitro CLint=kV/N
The amplified clearance (in mL/min/kg) was calculated using the following equation: Amplified CLint=kV/N×the amplification factor
The hepatic clearance (in mL/min/kg) was calculated using the following equation: The predicted hepatic CLH=(Q×Fu/RB×the amplified CLint)/(Q+Fu/RB×the amplified CLint) • V=the incubation volume per well (0.2 mL); • N=the total amount of protein (mg) • Q=the hepatic blood flow (mL/min/kg) • Fu=the plasma free rate (assumed to be 1) • RB=the whole blood partition coefficient (assumed to be 1)
The hepatic uptake rate was calculated using the following equation:
The hepatic extraction ratio (ER)=(the predicted hepatic CLH)/Q

Series [7] has as its system normal cells (HEF, HELF, A549, MRC5, BJ, HUVEC). The series is described as follows: in vitro toxicity to normal (non-senescent) cells, multiple cell models (CCK-8). Format: cell-based, human. The conditions noted are these: especially some cells of primary origins sensitive to Bcl-xL inhibition. From the text:
Induction of the Cellular Senescence

Setting [8] is: 10 μM prodrug, read-out: The peak area after normalisation at minute 120, oxidative dehydrogenation metabolite.
Where [9] appears, read: 10 μM, read-out: The peak area after normalisation at minute 120, initial drug.

On to `Cc1c(-c2ccc(N3CCc4cccc(C(=O)Nc5nc6ccccc6s5)c4C3)nc2C(=O)OCc2ccc(O[C@@H]3O[C@H](CO)[C@H](O)[C@H](O)[C@H]3O)c([N+](=O)[O-])c2)cnn1CC12CC3CC(CC(C3)C1)C2` [Compound A13bGa1], for which the metabolised at 2 h, 10 µM was determined as 0.48% in series [1] (setting [8]), 0.04% in series [2] (setting [8]) and 0.04% in series [5] (setting [8]). The remaining at 2 h, 10 µM in series [1] (setting [9]) turned out to be 99.5%; in series [2] (setting [9]), 100%; in series [5] (setting [9]), 100%. The “liver microsomal metabolic stability” value in series [3] is “good moderate metabolic stability”. The retinal oxygen-induced microangiopathy entry in series [4] is on record as “effectively improve the retinal oxygen-induced microangiopathy”. Moreover, the “area of the abnormal neovascular area in the retinas” value in series [4] (50 ng and 100 ng, FIGS. 6D and 6E) was “significantly reduced”. Further, the “The hepatic extraction ratio (E)” value in series [6] was 0.86. Further, the “The predicted intrinsic hepatic clearance Clint” value in series [6] (Fu and RB assumed to be 1) is given as 17.90 mL/min/kg. Moreover, the CLint scaled at 1 h, 1 µM in series [6] (microsomes) came to 132 mL/min/kg. In series [6] (microsomes), this compound gave a half-life at 1 h, 1 µM of 13.1 min. In addition, the microsomal CLint at 1 h, 1 µM in series [6] (microsomes) was 106 µL/min/mg. Besides, the “toxicity to the normal cells compared with the parent compound A13” value in series [7] is “greatly reduced”.
